One data set deals with Factor XIa (Homo sapiens (Human), UniProt P03951). The data set is described as follows: Factor XIa enzyme inhibition assay (dose response, fluorogenic AMC substrate). The data set is classed as biochemical. The note with it: read-out: hFXIa IC50. The essentials: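 Human FXIa at 0.25 nM final with 50 μM final PyroGlu-Pro-Arg-AMC in 20 mM Hepes pH 7.4, 150 mM NaCl, 0.02% Tween 20. Two-fold serial compound dilutions; fluorescence read every minute for 30 min at 30° C. IC50 from a four-parameter Hill fit.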

For the next data set, the target named is Factor Xa (Homo sapiens (Human), UniProt P00742). As to the kind of experiment: Dose response assay for protease inhibitors: Factor Xa. The data set is classed as biochemical. The note with it: selectivity, Factor Xa over Factor XIa. The essentials: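 Fluorogenic AMC-peptide cleavage in 20 mM Hepes pH 7.4, 150 mM NaCl, 0.02% Tween 20; 100 μM stock substrate dilution (Glp-Pro-Arg-AMC for thrombin/trypsin; Pro-Phe-Arg-AMC or Boc-Leu-Gly-Arg-AMC for Factor Xa). Enzyme diluted to 0.5 nM, added last to two-fold compound series; kinetic read at 30° C, 30 min (Factor Xa 60 min); IC50 fitted.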

Data set [1] can be described thus: Caco-2 cell permeability assay. The data set is classed as in vitro ADME, human. The note with it: human, 37° C.; for Papp A→B at 60 min, 10 μM: Caco-2, apical to basolateral; for Papp B→A at 40 min, 10 μM: Caco-2, basolateral to apical. Here is the method:
The following procedure was used to determine the ability of a test compound to cross Caco-2 cells (human intestinal epithelial cells derived from a colorectal adenocarcinoma). The cells were seeded at 1×10^5 cells/cm^2 in 96-well Multiscreen™ plates (Millipore). Permeability assays were performed with the cells at days 21-25 post-seeding. Cells are typically used for 15 consecutive passages in culture.
This assay can be performed in either the apical to basolateral (A-B) or basolateral to apical (B-A) direction. The test compound was prepared at 10 μM in HBSS-MES (pH 6.5) or HBSS-HEPES (pH 7.4) with a final DMSO concentration of 1%. The working solution was then centrifuged and the supernatant added to the donor side. The assay plate was incubated at 37° C. with gentle shaking for 60 min or 40 min for the A-B or B-A assay, respectively. Samples were aliquoted from the donor side at time zero and the end point, and from the receiver side at the end point.
Reference compounds, propranolol (highly permeable), labetalol (moderately permeable), ranitidine (poorly permeable), and colchicine (P-glycoprotein substrate) were included in each assay.
Samples are analyzed by HPLC-MS/MS using selected reaction monitoring. The HPLC system consists of a binary LC pump with autosampler, a C-18 column, and a gradient.
The apparent permeability coefficient (Papp) of the test compound (Equation 2) and its recovery (Equation 3) are calculated as follows:
[formula] wherein A is the surface area of the cell monolayer (0.11 cm^2), C is concentration of the test compound expressed as peak area, D denotes donor, and R is receiver. “0”, “mid,” and “end” denote time at zero, mid-point, and end of the incubation, respectively. Δt is the incubation time. V is the volume of the donor or receiver.
This is most likely due to non-specific binding or degradation.

Factor Xa, sequence (P00742 235-488): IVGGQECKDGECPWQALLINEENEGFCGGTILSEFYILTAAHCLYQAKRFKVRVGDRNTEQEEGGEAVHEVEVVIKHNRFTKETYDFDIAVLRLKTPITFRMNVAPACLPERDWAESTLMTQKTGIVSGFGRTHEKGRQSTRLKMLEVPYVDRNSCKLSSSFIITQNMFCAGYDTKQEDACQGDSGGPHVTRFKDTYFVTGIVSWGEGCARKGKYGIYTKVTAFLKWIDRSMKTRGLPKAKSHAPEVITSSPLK
Factor Xa, sequence (P00742 41-179 partner): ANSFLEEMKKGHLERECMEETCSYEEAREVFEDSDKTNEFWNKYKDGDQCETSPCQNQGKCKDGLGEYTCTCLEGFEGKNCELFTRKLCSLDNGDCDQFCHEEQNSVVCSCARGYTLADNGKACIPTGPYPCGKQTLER
Factor XIa, sequence (P03951 388-625): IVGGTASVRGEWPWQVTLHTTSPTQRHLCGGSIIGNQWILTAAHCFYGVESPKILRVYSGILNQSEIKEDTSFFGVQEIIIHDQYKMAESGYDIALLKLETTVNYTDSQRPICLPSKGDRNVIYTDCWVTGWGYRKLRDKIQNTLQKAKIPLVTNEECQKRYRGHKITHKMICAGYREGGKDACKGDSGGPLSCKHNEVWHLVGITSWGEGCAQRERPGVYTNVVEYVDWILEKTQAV
Factor XIa, sequence (P03951 19-387 partner): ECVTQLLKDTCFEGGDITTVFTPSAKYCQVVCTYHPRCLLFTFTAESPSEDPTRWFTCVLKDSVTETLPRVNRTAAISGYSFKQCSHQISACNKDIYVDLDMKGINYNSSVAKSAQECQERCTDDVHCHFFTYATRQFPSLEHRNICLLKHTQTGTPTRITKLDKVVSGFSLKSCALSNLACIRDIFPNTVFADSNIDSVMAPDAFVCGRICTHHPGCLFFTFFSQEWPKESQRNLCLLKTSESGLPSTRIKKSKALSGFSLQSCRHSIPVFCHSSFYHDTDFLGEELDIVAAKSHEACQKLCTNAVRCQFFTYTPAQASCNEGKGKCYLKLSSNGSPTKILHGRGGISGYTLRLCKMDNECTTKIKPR

Turning to `CC[C@@H](NC(=O)N1C(=O)[C@H](Cc2ccnc(N)c2)[C@H]1C(=O)N(C)c1nccn1C)c1cccc(Cl)c1` [Compound 1-35, (2S,3R)-3-((2-aminopyridin-4-yl)methyl)-N2-(1-methyl-1H-imidazol-2-yl)-N1-((R)-1-(3-chlorophenyl)propyl)-N2-methyl-4-oxoazetidine-1,2-dicarboxamide], the IC50 at Factor XIa was less than 10 nM. Moreover, the “Ratio: FXa/FXIa” value at Factor Xa is given as “H (“H” indicates 101-1000)”. In data set [1], the Papp A→B at 60 min, 10 μM is less than 10 ×10⁻⁶ cm/s and the apparent permeability from basolateral to apical (Papp B→A) at 40 min, 10 μM is 31 to 50 ×10⁻⁶ cm/s.

With `CC[C@@H](NC(=O)N1C(=O)[C@H](Cc2ccnc(NC)c2)[C@H]1C(=O)N(C)c1nccn1C)c1cccc(Cl)c1` [Compound 1-41, (2S,3R)-3-((2-methylaminopyridin-4-yl)methyl)-N2-(1-methyl-1H-imidazol-2-yl)-N1-((R)-1-(3-chlorophenyl)propyl)-N2-methyl-4-oxoazetidine-1,2-dicarboxamide], the half-maximal inhibitory concentration (IC50) on Factor XIa lay in the range of 10 to 100 nM. Further, the “Ratio: FXa/FXIa” value at Factor Xa is reported as “I (“I” indicates > 500)”. In data set [1], this molecule yielded a Papp A→B at 60 min, 10 μM of less than 10 ×10⁻⁶ cm/s and a Papp B→A at 40 min, 10 μM of 31 to 50 ×10⁻⁶ cm/s.

As for `CC[C@@H](NC(=O)N1C(=O)[C@H](Cc2cc(C)nc(N)c2)[C@H]1C(=O)N(C)c1nccn1C)c1cccc(Cl)c1` [Compound 1-43, (2S,3R)-3-((2-amino-6-methylpyridin-4-yl)methyl)-N2-(1-methyl-1H-imidazol-2-yl)-N1-((R)-1-(3-chlorophenyl)propyl)-N2-methyl-4-oxoazetidine-1,2-dicarboxamide], at Factor XIa, the IC50 was less than 10 nM. Further, the “Ratio: FXa/FXIa” value on Factor Xa is listed as “I (“I” indicates > 500)”. Besides, in data set [1], the Papp A→B at 60 min, 10 μM is less than 10 ×10⁻⁶ cm/s and the Papp B→A at 40 min, 10 μM fell in the range of 11 to 30 ×10⁻⁶ cm/s.

Take `CC[C@@H](NC(=O)N1C(=O)[C@H](Cc2cc(C)nc(NC)c2)[C@H]1C(=O)N(C)c1nccn1C)c1cccc(Cl)c1` [Compound 1-46, (2S,3R)-3-((2-methylamino-6-methylpyridin-4-yl)methyl)-N2-(1-methyl-1H-imidazol-2-yl)-N1-((R)-1-(3-chlorophenyl)propyl)-N2-methyl-4-oxoazetidine-1,2-dicarboxamide]: at Factor XIa, the IC50 was less than 10 nM. Also, the “Ratio: FXa/FXIa” value on Factor Xa was “I (“I” indicates > 500)”. Moreover, in data set [1], the apical-to-basolateral permeability (Papp A→B) at 60 min, 10 μM lay within 11 to 30 ×10⁻⁶ cm/s and the apparent permeability from basolateral to apical (Papp B→A) at 40 min, 10 μM is 11 to 30 ×10⁻⁶ cm/s.

Turning to `CC[C@@H](NC(=O)N1C(=O)[C@H](Cc2ccnc(N)c2)[C@H]1C(=O)N(C)c1ccn(C)n1)C1CCCCC1` [Compound 1-47, (2S,3R)-3-((2-aminopyridin-4-yl)methyl)-N2-(1-methyl-1H-pyrazol-3-yl)-N1-((R)-1-cyclohexylpropyl)-N2-methyl-4-oxoazetidine-1,2-dicarboxamide], the IC50 on Factor XIa was less than 10 nM. Moreover, the “Ratio: FXa/FXIa” value at Factor Xa is listed as “I (“I” indicates > 500)”. In data set [1], this molecule returned an apparent permeability from apical to basolateral (Papp A→B) at 60 min, 10 μM of less than 10 ×10⁻⁶ cm/s and an apparent permeability from basolateral to apical (Papp B→A) at 40 min, 10 μM of 31 to 50 ×10⁻⁶ cm/s.

Consider `C[C@@H](NC(=O)N1C(=O)[C@H](Cc2ccnc(N)c2)[C@H]1C(=O)N(C)c1ccn(C)n1)C1CCCCC1` [Compound 1-50, (2S,3R)-3-((2-aminopyridin-4-yl)methyl)-N2-(1-methyl-1H-pyrazol-3-yl)-N1-((R)-1-cyclohexylethyl)-N2-methyl-4-oxoazetidine-1,2-dicarboxamide], for which the IC50 on Factor XIa fell in the range of 10 to 100 nM. Also, the “Ratio: FXa/FXIa” value on Factor Xa was “I (“I” indicates > 500)”. In data set [1], this molecule came in with a Papp A→B at 60 min, 10 μM of less than 10 ×10⁻⁶ cm/s and a Papp B→A at 40 min, 10 μM of 31 to 50 ×10⁻⁶ cm/s.

With `CC[C@@H](NC(=O)N1C(=O)[C@H](Cc2ccnc(N)c2)[C@H]1C(=O)N(C)c1nccn1C)C1CCCCC1` [Compound 1-55, (2S,3R)-3-((2-aminopyridin-4-yl)methyl)-N2-(1-methyl-1H-imidazol-2-yl)-N1-((R)-1-cyclohexylpropyl)-N2-methyl-4-oxoazetidine-1,2-dicarboxamide], on Factor XIa, the IC50 is less than 10 nM. For the same molecule, at Factor Xa, the “Ratio: FXa/FXIa” value is listed as “I (“I” indicates > 500)”. In addition, in data set [1], the Papp A→B at 60 min, 10 μM was less than 10 ×10⁻⁶ cm/s and the Papp B→A at 40 min, 10 μM was in the range of 31 to 50 ×10⁻⁶ cm/s.

For the molecule `CC(C)[C@@H](NC(=O)N1C(=O)[C@H](Cc2ccnc(N)c2)[C@H]1C(=O)N(C)c1ccn(C)n1)C1CCCCC1` [Compound 1-57, (2S,3R)-3-((2-aminopyridin-4-yl)methyl)-N2-(1-methyl-1H-pyrazol-3-yl)-N1-((R)-1-cyclohexyl-2-methylpropyl)-N2-methyl-4-oxoazetidine-1,2-dicarboxamide], the half-maximal inhibitory concentration (IC50) on Factor XIa lay in the range of 10 to 100 nM. Further, the “Ratio: FXa/FXIa” value at Factor Xa is given as “I (“I” indicates > 500)”. In data set [1], the Papp A→B at 60 min, 10 μM was 11 to 30 ×10⁻⁶ cm/s and the Papp B→A at 40 min, 10 μM is 11 to 30 ×10⁻⁶ cm/s.

Consider `CN(C(=O)[C@@H]1[C@@H](Cc2ccnc(N)c2)C(=O)N1C(=O)N[C@@H](C1CCCCC1)C1CC1)c1ccn(C)n1` [Compound 1-58, (2S,3R)-3-((2-aminopyridin-4-yl)methyl)-N2-(1-methyl-1H-pyrazol-3-yl)-N1-((R)-cyclohexyl-cyclopropylmethyl)-N2-methyl-4-oxoazetidine-1,2-dicarboxamide], for which the half-maximal inhibitory concentration (IC50) at Factor XIa was less than 10 nM. For the same molecule, the “Ratio: FXa/FXIa” value on Factor Xa is recorded as “I (“I” indicates > 500)”. In data set [1], this molecule gave a Papp A→B at 60 min, 10 μM of 11 to 30 ×10⁻⁶ cm/s and a Papp B→A at 40 min, 10 μM of 11 to 30 ×10⁻⁶ cm/s.

`CC[C@@H](NC(=O)N1C(=O)[C@H](Cc2cc(C)nc(NC)c2)[C@H]1C(=O)N(C)c1ccnn1C)C1CCCCC1` [Compound 1-62, (2S,3R)-3-((2-methylamino-6-methylpyridin-4-yl)methyl)-N2-(1-methyl-1H-pyrazol-5-yl)-N1-((R)-1-cyclohexylpropyl)-N2-methyl-4-oxoazetidine-1,2-dicarboxamide]: the 50% inhibitory concentration (IC50) at Factor XIa was in the range of 10 to 100 nM. Moreover, the “Ratio: FXa/FXIa” value on Factor Xa is “I (“I” indicates > 500)”. Besides, in data set [1], the Papp A→B at 60 min, 10 μM fell in the range of 11 to 30 ×10⁻⁶ cm/s and the Papp B→A at 40 min, 10 μM lay in the range of 11 to 30 ×10⁻⁶ cm/s.

With `CC[C@@H](NC(=O)N1C(=O)[C@H](Cc2ccnc(N)c2)[C@H]1C(=O)N(C)c1ccnn1C)C1CCCCC1` [Compound 1-63, (2S,3R)-3-((2-aminopyridin-4-yl)methyl)-N2-(1-methyl-1H-pyrazol-5-yl)-N1-((R)-1-cyclohexylpropyl)-N2-methyl-4-oxoazetidine-1,2-dicarboxamide], at Factor XIa, the IC50 was less than 10 nM. Further, the “Ratio: FXa/FXIa” value on Factor Xa is listed as “I (“I” indicates > 500)”. For the same molecule, in data set [1], the Papp A→B at 60 min, 10 μM was 11 to 30 ×10⁻⁶ cm/s and the Papp B→A at 40 min, 10 μM lay within 31 to 50 ×10⁻⁶ cm/s.

In the case of `CC[C@@H](NC(=O)N1C(=O)[C@H](Cc2cc(C)nc(N)c2)[C@H]1C(=O)N(C)c1ccnn1C)C1CCCCC1` [Compound 1-67, (2S,3R)-3-((2-amino-6-methylpyridin-4-yl)methyl)-N2-(1-methyl-1H-pyrazol-5-yl)-N1-((R)-1-cyclohexylpropyl)-N2-methyl-4-oxoazetidine-1,2-dicarboxamide], on Factor XIa, the half-maximal inhibitory concentration (IC50) was 10 to 100 nM. Also, the “Ratio: FXa/FXIa” value at Factor Xa is on record as “I (“I” indicates > 500)”. In data set [1], this molecule returned an apical-to-basolateral permeability (Papp A→B) at 60 min, 10 μM of 11 to 30 ×10⁻⁶ cm/s and a basolateral-to-apical permeability (Papp B→A) at 40 min, 10 μM of 31 to 50 ×10⁻⁶ cm/s.

As to `CC[C@@H](NC(=O)N1C(=O)[C@H](Cc2ccnc(N)c2)[C@H]1C(=O)N(C)c1nccn1C)c1cccc(C)c1` [Compound 1-80, (2S,3R)-3-((2-aminopyridin-4-yl)methyl)-N2-(1-methyl-1H-imidazol-2-yl)-N1-((R)-1-(3-methylphenyl)propyl)-N2-methyl-4-oxoazetidine-1,2-dicarboxamide], the IC50 on Factor XIa is less than 10 nM. In addition, the “Ratio: FXa/FXIa” value at Factor Xa was “I (“I” indicates > 500)”. Besides, in data set [1], the Papp A→B at 60 min, 10 μM was less than 10 ×10⁻⁶ cm/s and the Papp B→A at 40 min, 10 μM was in the range of 31 to 50 ×10⁻⁶ cm/s.

The term IC50 denotes the concentration that gives 50% inhibition. The term Papp A→B denotes the apparent permeability from the apical to the basolateral side of a cell layer. As a reminder, the Papp B→A is how fast a substance crosses the layer from the basolateral side.

Source of the values: patent publication US11691962B2 (eXIthera Pharmaceuticals, Inc., priority 2018, dated 2023).
